The record followed here is patent publication US8524911B2, “3-arylamino pyridine derivatives” (Merck Serono SA, priority 2004, dated 2013).

For assay [1], the target named is human MEK1 (Homo sapiens, UniProt Q02750). Put plainly: MEK-1 Enzyme Assay (LANCE-HTRF). In kind it is biochemical. To be noted: 100 nM MEK1, 15 μM ATP, 300 nM ERK2, two hours; read-out: MEK inhibition. On the procedure: Assay 1: MEK-1 Enzyme Assay (LANCE-HTRF)
The activity of the compounds of the present invitation may be determined by the following procedure; Inhibition of human MEK1 kinase activity was monitored with a homogenous, fluorescence based assay. The assay uses time resolved fluorescence resonance energy transfer to probe for phosphorylation of ERK1 by MEK1. The assay is carried out in low volume 96 well microtiterplates. […] After two hours, 5 nM Europium-anti-PY20 (Perkin Elmer) and 50 nM Anti-GST-Allophycocyanin (CisBio) in buffer containing 50 mM EDTA and 0.05% BSA are added and the reaction incubated for one hour in the dark. Time-resolved fluorescence is measured using a LJL-Analyst (Molecular Devices) with an excitation wavelength of 340 nm and an emission wavelength of 665 nm. The final concentration of DMSO is 2%.

Assay [2] relates to human pancreatic MiaPaCa-2 cells. Put plainly: Tumor cell proliferation assay (ATP Lite), MiaPaCa-2. The class given is cell-based. The following applies: MIA PaCa-2, 96 h, 4 days. On the procedure: (§1) Assay 2: Tumor Cell Proliferation Assays (ATP Lite)
(§2) Murine colon C26, human melanoma A375 and MeI5 or human pancreatic MiaPaCa-2 cells were plated in 96 well Corning white plates (1500 cells/well for C26, and 2000 cells/well for A375, and MiaPaCa-2) and cultured overnight at 37° C. in 5% CO2. Inhibitors were serially diluted in 100% DMSO and subsequently added to cells to reach a final concentration of 0.25% DMSO. The cells were incubated for 4 days in the presence of test compounds in cell growth media (DMEM with 10% fetal bovine serum, 2 mM glutamine for C26, and MiaPaCa-2, and RPMI with 10% fetal bovine serum, 2 mM glutamine for A375). Cell proliferation was quantitated using the ATP lite cell proliferation kit (Packard). Columns 4-6 show the concentration of compounds required to induce 50% cell death (IC50 in μM) of […]. With “+” meaning 3 μM<IC50≦10 μM and “++” IC50≦3 μM and “n.d.” means not determined. Few compounds were also tested on human melanoma cell MeI5.

In assay [3] the test system is Murine colon C26 cells. As to the kind of experiment: Tumor cell proliferation assay (ATP Lite), C26. The class given is cell-based. To be noted: Mus musculus, 96 h, 4 days. On the procedure:
as §1, §2

For assay [4], the system named is human melanoma A375 cells. As to the kind of experiment: Tumor cell proliferation assay (ATP Lite), A375. The class given is cell-based. The following applies: A-375, 96 h, 4 days. The protocol: as §1, §2

Counter-ions that a name gives are not always drawn.

Chain of human MEK1 (Q02750 whole entry): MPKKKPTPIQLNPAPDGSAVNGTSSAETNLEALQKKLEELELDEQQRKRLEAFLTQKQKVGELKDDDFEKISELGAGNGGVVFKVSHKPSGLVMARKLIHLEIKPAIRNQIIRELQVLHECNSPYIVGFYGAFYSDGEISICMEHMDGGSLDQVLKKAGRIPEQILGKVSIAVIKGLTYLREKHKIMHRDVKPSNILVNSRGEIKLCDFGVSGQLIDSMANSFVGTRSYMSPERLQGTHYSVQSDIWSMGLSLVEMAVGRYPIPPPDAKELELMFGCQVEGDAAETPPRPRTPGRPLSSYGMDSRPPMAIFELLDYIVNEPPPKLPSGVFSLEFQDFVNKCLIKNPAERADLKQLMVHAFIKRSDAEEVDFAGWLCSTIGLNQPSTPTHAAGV

Turning to `O=C(NOCc1ccccc1)c1ccncc1Nc1ccc(I)cc1F` [Example 91, N-(benzyloxy)-3-[(2-fluoro-4-iodophenyl)amino]isonicotinamide], the IC50 is below 1000 nM in assay [1], 3 to 10 µM in assay [2], 3 to 10 µM in assay [3] and at most 3 µM in assay [4].
For `O=C(NCC1CC1)c1ccncc1Nc1ccc(I)cc1F` [Example 53, N-(cyclopropylmethyl)-3-[(2-fluoro-4-iodophenyl)amino]-isonicotinamide], the IC50 is below 1000 nM in assay [1], at most 3 µM in assay [2], at most 3 µM in assay [3] and at most 3 µM in assay [4].
`O=C(NNc1nccc(C(F)(F)F)n1)c1ccncc1Nc1ccc(I)cc1F` [Example 50, 3-[(2-fluoro-4-iodophenyl)amino]-N′-[4-(trifluoromethyl)pyrimidin-2-yl]isonicotinohydrazide]: the IC50 in assay [1] was below 1000 nM; in assay [2] it was 3 to 10 µM; in assay [3], 3 to 10 µM; in assay [4], at most 3 µM.
Take `Cc1nccc(C(N)=O)c1Nc1ccc(I)cc1F` [Example 100, 3-(2-Fluoro-4-iodo-phenylamino)-2-methyl-isonicotinamide]: the IC50 in assay [1] was below 1000 nM; in assay [2] it was 3 to 10 µM; in assay [3], 3 to 10 µM; in assay [4] it was at most 3 µM.
Turning to `O=C(NCCCn1ccnc1)c1ccncc1Nc1ccc(I)cc1F` [Example 20, 3-[(2-fluoro-4-iodophenyl)amino]-N-[3-(1H-imidazol-1yl)propyl]-isonicotinamide], the IC50 in assay [1] was below 1000 nM; in assay [2] it was at most 3 µM; in assay [3], at most 3 µM; in assay [4], at most 3 µM.
On to `NC(=O)c1cc(Br)ncc1Nc1ccc(I)cc1F` [Example 68, 2-Bromo-5-(2-fluoro-4-iodo-phenylamino)-isonicotinamide], for which the IC50 in assay [1] was below 1000 nM; in assay [2], at most 3 µM; in assay [3] it was at most 3 µM; in assay [4], at most 3 µM.
Regarding `CC(O)CNC(=O)c1ccncc1Nc1ccc(I)cc1F` (stereo not shown) [Example 14, 3-[(2-fluoro-4-iodophenyl)amino]-N-(2-hydroxypropyl)-isonicotinamide], the IC50 is below 1000 nM in assay [1], at most 3 µM in assay [2], at most 3 µM in assay [3] and at most 3 µM in assay [4].
For the compound `NC(=O)c1ccncc1Nc1ccc(I)cc1F` [Example 12, 3-[(2-fluoro-4-iodophenyl)amino]isonicotinamide], the IC50 was below 1000 nM in assay [1], at most 3 µM in assay [2], at most 3 µM in assay [3] and at most 3 µM in assay [4].
In the case of `NC(=O)c1cc[n+]([O-])cc1Nc1ccc(I)cc1F` [Example 97, 3-(2-Fluoro-4-iodo-phenylamino)-1-oxy-isonicotinamide], the IC50 was below 1000 nM in assay [1], at most 3 µM in assay [2], at most 3 µM in assay [3] and at most 3 µM in assay [4].
On to `O=C(O)CONC(=O)c1ccncc1Nc1ccc(I)cc1F` [Example 92, [({3-[(2-fluoro-4-iodophenyl)amino]isonicotinoyl}amino)oxy]acetic acid], for which the IC50 is below 1000 nM in assay [1], 3 to 10 µM in assay [2], 3 to 10 µM in assay [3] and at most 3 µM in assay [4].
In the case of `O=C(NOC[C@H](O)CO)c1ccnc(Cl)c1Nc1ccc(I)cc1F` [Example 43, 2-Chloro-N-[(2R)-2,3-dihydroxy-propoxy]-3-(2-fluoro-4-iodo-phenylamino)-isonicotinamide], the IC50 is below 1000 nM in assay [1], 3 to 10 µM in assay [2], 3 to 10 µM in assay [3] and at most 3 µM in assay [4].
On to `C[C@@H](O)CNC(=O)c1ccncc1Nc1ccc(I)cc1F` [Example 48, 3-[(2-fluoro-4-iodophenyl)amino]-N-[(2R)-2-hydroxypropyl]-isonicotinamide], for which the IC50 in assay [1] is below 1000 nM; in assay [2], at most 3 µM; in assay [3], at most 3 µM; in assay [4] it was at most 3 µM.
As to `O=C(NCc1ccc(F)cc1F)c1ccncc1Nc1ccc(I)cc1F` [Example 93, N-(2,4-difluorobenzyl)-3-[(2-fluoro-4-iodophenyl)amino]-isonicotinamide], the IC50 in assay [1] was below 1000 nM; in assay [2], 3 to 10 µM; in assay [3] it was 3 to 10 µM; in assay [4], at most 3 µM.
For the compound `CCONC(=O)c1ccncc1Nc1ccc(I)cc1Cl` [Example 76], the IC50 in assay [1] is below 1000 nM; in assay [2], 3 to 10 µM; in assay [3], 3 to 10 µM; in assay [4], at most 3 µM.
With `O=C(NCCN1CCCCC1)c1ccncc1Nc1ccc(I)cc1F` [Example 33, 3-[(2-fluoro-4-iodophenyl)amino]-N-(2-piperidin-1-ylethyl)-isonicotinamide], the IC50 in assay [1] is below 1000 nM; in assay [2], at most 3 µM; in assay [3], at most 3 µM; in assay [4], at most 3 µM.
Take `O=C(NCCO)c1cc(Br)ncc1Nc1ccc(I)cc1F` [Example 74, 2-Bromo-5-(2-fluoro-4-iodo-phenylamino)-N-(2-hydroxy-ethyl)-isonicotinamide]: the IC50 in assay [1] is below 1000 nM; in assay [2], 3 to 10 µM; in assay [3] it was 3 to 10 µM; in assay [4] it was at most 3 µM.
In the case of `O=C(O)c1ccc(CNC(=O)c2ccncc2Nc2ccc(I)cc2F)cc1` [Example 46, 4-[({3-[(2-fluoro-4-iodophenyl)amino]isonicotinoyl}-amino)methyl]benzoic acid], the IC50 was below 1000 nM in assay [1], 3 to 10 µM in assay [2], 3 to 10 µM in assay [3] and at most 3 µM in assay [4].
As to `NC1CCN(C(=O)c2ccncc2Nc2ccc(I)cc2F)CC1` [Example 44, 4-[(4-aminopiperidin-1-yl)carbonyl]-N-(2-fluoro-4-iodophenyl)pyridin-3-amine hydrochloride], the IC50 in assay [1] was below 1000 nM; in assay [2], 3 to 10 µM; in assay [3], 3 to 10 µM; in assay [4], at most 3 µM.
In the case of `O=C(NCCCN1CCOCC1)c1ccncc1Nc1ccc(I)cc1F` [Example 35, 3-[(2-fluoro-4-iodophenyl)amino]-N-(3-morpholin-4-ylpropyl)-isonicotinamide], the IC50 was below 1000 nM in assay [1], at most 3 µM in assay [2], at most 3 µM in assay [3] and at most 3 µM in assay [4].
In the case of `O=C(NCCO)c1ccncc1Nc1ccc(I)cc1F` [Example 15, 3-(2-Fluoro-4-iodo-phenylamino)-N-(2-hydroxy-ethyl)-isonicotinamide], the IC50 in assay [1] is below 1000 nM; in assay [2], at most 3 µM; in assay [3] it was at most 3 µM; in assay [4] it was at most 3 µM.
As to `O=C(NNc1ccccn1)c1ccncc1Nc1ccc(I)cc1F` [Example 49, 3-[(2-fluoro-4-iodophenyl)amino]-N′-pyridin-2-ylisonicotino-hydrazide], the IC50 in assay [1] was below 1000 nM; in assay [2], at most 3 µM; in assay [3], at most 3 µM; in assay [4], at most 3 µM.
On to `O=C(c1ccncc1Nc1ccc(I)cc1F)N1CCOCC1` [Example 17, [3-(2-Fluoro-4-iodo-phenylamino)-pyridin-4-yl]-morpholin-4-yl-methanone], for which the IC50 is below 1000 nM in assay [1], at most 3 µM in assay [2], at most 3 µM in assay [3] and at most 3 µM in assay [4].
